Measured values taken from US11559538B2, “Substituted 1,2-oxaborolan-2-ols as PDE4 inhibitors” (Pfizer Inc., priority 2018, dated 2023).
pIC50: −log10 of the molar value. Read-outs that look alike come from different tables or passages of the source.

Tests used:
[1] = tested on: IL-4; experiment: Cytokine assay: IL-4 release from PHA-L stimulated human PBMCs; type: cell-based; settings: read-out: IL4 IC50
How it was run: (§1)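 IC50 values came from four-parameter logistic fits of supernatant cytokine, which was quantified by HTRF. Mitogen stimulation used PHA-L at a final 3.5 μg/mL on about 250,000 thawed human PBMCs per well, in serum-containing RPMI medium with 0.25% DMSO, for 48 h.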

[2] = tested on: IFNγ; experiment: Cytokine assay: IFNγ release from PHA-L stimulated human PBMCs; type: cell-based
How it was run: as §1

[3] = tested on: IL-13; experiment: Cytokine assay: IL-13 release from PHA-L stimulated human PBMCs; type: cell-based; settings: read-out: IL13 IC50
How it was run: as §1

[4] = target: PDE4B (aa 152-484, Uniprot ID Q07343) (Homo sapiens (Human), UniProt Q07343); experiment: PDE4 SPA assay (scintillation proximity assay); type: biochemical; settings: read-out: PDE4B2 IC50
Chain of PDE4B (aa 152-484, Uniprot ID Q07343) (Q07343 324-656): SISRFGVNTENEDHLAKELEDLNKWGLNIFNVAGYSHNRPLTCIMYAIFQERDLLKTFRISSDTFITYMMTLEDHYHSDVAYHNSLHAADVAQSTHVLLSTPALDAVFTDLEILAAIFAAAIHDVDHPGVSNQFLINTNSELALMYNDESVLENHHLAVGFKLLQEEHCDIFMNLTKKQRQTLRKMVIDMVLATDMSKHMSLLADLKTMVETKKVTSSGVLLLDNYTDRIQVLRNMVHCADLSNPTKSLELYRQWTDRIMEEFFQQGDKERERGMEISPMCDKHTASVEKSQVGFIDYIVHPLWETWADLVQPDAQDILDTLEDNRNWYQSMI
How it was run: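 PDE4B (aa 152-484, ~81.6 pM) preincubated ~10 min with compound, then 1 μM ³H/unlabeled cAMP added in Tris pH 7.5, 1.3 mM MgCl2, 0.004% Brij 35, ~2% DMSO; 30 min at RT. Product captured on SPA beads and counted; IC50 by four-parameter logistic fit.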

Structure (SMILES)	pIC50 ([1]; Homo sapiens, PBMC)	pIC50 ([2]; Homo sapiens, PBMC)	pIC50 ([3]; Homo sapiens, PBMC)	pIC50 [4]	pIC50 [1]	pIC50 [3]	pIC50 [2]
COc1cc(-c2ccc(OC)c(OC3CCCC3)c2)nc(C2COB(O)C2)n1 (single isomer, unassigned; enantiomer 2) [Example 176, 4-(4-(3-(cyclopentyloxy)-4-methoxyphenyl)-6-methoxypyrimidin-2-yl)-1,2-oxaborolan-2-ol, enantiomer 2]	8.19	8.53	5.94	8.26	–	–	–
COc1ccc(-c2nc(C3COB(O)C3)ns2)cc1OC1CC1 (single isomer, unassigned; enantiomer 2) [Example 181, (−) 4-(5-(3-cyclopropoxy-4-methoxyphenyl)-1,2,4-thiadiazol-3-yl)-1,2-oxaborolan-2-ol, enantiomer 2]	8.65	8.50	5.89	9.17	–	–	–
CCOc1cc(-c2nc(OC)cc(C3COB(O)C3)n2)ccc1OC (single isomer, unassigned; enantiomer 2) [Example 186, (−) 4-(2-(3-ethoxy-4-methoxyphenyl)-6-methoxypyrimidin-4-yl)-1,2-oxaborolan-2-ol, enantiomer 2]	7.50	8.29	5.85	8.35	–	–	–
CCOc1cc(-c2cncc(C3COB(O)C3)c2C)ccc1OC (single isomer, unassigned; enantiomer 2) [Example 189, 4-(5-(3-ethoxy-4-methoxyphenyl)-4-methylpyridin-3-yl)-1,2-oxaborolan-2-ol, enantiomer 2]	–	8.84	–	8.58	8.11	5.84	–
COc1ccc(-c2cncc(C3COB(O)C3)c2)cc1OC(C)C (single isomer, unassigned; enantiomer 2) [Example 190, 4-(5-(3-isopropoxy-4-methoxyphenyl)pyridin-3-yl)-1,2-oxaborolan-2-ol, enantiomer 2]	–	–	–	8.84	7.39	5.83	8.30
CCOc1c(OC)ccc(-c2cccc(C3COB(O)C3)c2)c1C#N (single isomer, unassigned; enantiomer 2) [Example 192, 3-ethoxy-3′-(2-hydroxy-1,2-oxaborolan-4-yl)-4-methoxy-[1,1′-biphenyl]-2-carbonitrile, enantiomer 2]	7.83	8.27	5.82	8.67	–	–	–
CCCOc1nc(-c2cncc(C3COB(O)C3)c2)c(F)cc1OC (single isomer, unassigned; enantiomer 2) [Example 208, (+) 4-(3-fluoro-5-methoxy-6-propoxy-[2,3′-bipyridin]-5′-yl)-1,2-oxaborolan-2-ol, enantiomer 2]	–	–	–	9.66	8.39	5.74	8.70
COc1ccc(-c2cc(C3COB(O)C3)ccn2)cc1OC1CCCC1 (single isomer, unassigned; enantiomer 2) [Example 211, 4-(2-(3-(cyclopentyloxy)-4-methoxyphenyl)pyridin-4-yl)-1,2-oxaborolan-2-ol, enantiomer 2]	7.56	8.74	5.74	8.53	–	–	–
CCOc1cc(-c2cncc(C3COB(O)C3)c2)cc(F)c1OC (single isomer, unassigned; enantiomer 2) [Example 214, 4-(5-(3-ethoxy-5-fluoro-4-methoxyphenyl)pyridin-3-yl)-1,2-oxaborolan-2-ol, enantiomer 2]	–	–	–	8.31	7.68	5.70	7.86
COc1ccc(-c2cncc(C3COB(O)C3)c2)cc1OC (single isomer, unassigned; enantiomer 2) [Example 221, 4-(5-(3,4-dimethoxyphenyl)pyridin-3-yl)-1,2-oxaborolan-2-ol, enantiomer 2]	–	–	–	8.66	7.32	5.62	8.03
CCCOc1cc(-c2nc(OC)cc(C3COB(O)C3)n2)ccc1OC (single isomer, unassigned; enantiomer 2) [Example 225, (−) 4-(6-methoxy-2-(4-methoxy-3-propoxphenyl)pyrimidin-4-yl)-1,2-oxaborolan-2-ol, enantiomer 2]	7.67	8.36	5.62	8.42	–	–	–
COc1ccc(-c2cncc(C3COB(O)C3)c2)cc1OCCO (single isomer, unassigned; enantiomer 2) [Example 228, (+) 4-(5-(3-(2-hydroxyethoxy)-4-methoxyphenyl)pyridin-3-yl)-1,2-oxaborolan-2-ol, enantiomer 2]	–	–	–	8.20	8.11	5.59	7.85
CCOc1cc(-c2cncc([C@H]3COB(O)C3)c2)ccc1OC [Example 2, (S)-4-(5-(3-ethoxy-4-methoxyphenyl)pyridin-3-yl)-1,2-oxaborolan-2-ol]	6.68	8.56	5.87	9.17	–	–	–
CCOc1cc(-c2cncc([C@@H]3COB(O)C3)c2)ccc1OC [Example 3, (R)-4-(5-(3-ethoxy-4-methoxyphenyl)pyridin-3-yl)-1,2-oxaborolan-2-ol]	8.45	9.15	6.78	8.94	–	–	–
CCCOc1cc(-c2cncc([C@H]3COB(O)C3)c2)ccc1OC [Example 5, (S)-4-(5-(4-methoxy-3-propoxyphenyl)pyridin-3-yl)-1,2-oxaborolan-2-ol]	7.44	8.39	5.62	9.03	–	–	–
CCCOc1cc(-c2cncc(C3=CB(O)OC3)c2)ccc1OC [Example 25, 4-(5-(4-methoxy-3-propoxyphenyl)pyridin-3-yl)-1,2-oxaborol-2(5H)-ol]	7.17	8.04	5.64	8.62	–	–	–
CCCOc1cc(-c2cccc(C3CCOB(O)C3)n2)ccc1OC (stereo not drawn) [Example 26, 4-(6-(4-methoxy-3-propoxyphenyl)pyridin-2-yl)-1,2-oxaborinan-2-ol]	5.78	5.48	5.00	6.40	–	–	–
CCCOc1cc(-c2cccc(C3COB(O)C3C)n2)ccc1OC (stereo not drawn) [Example 27, 4-(6-(4-methoxy-3-propoxyphenyl)pyridin-2-yl)-3-methyl-1,2-oxaborolan-2-ol]	5.42	6.68	5.00	7.13	–	–	–
CCCOc1cc(-c2cccc(C3=C(C)B(O)OC3)n2)ccc1OC [Example 28, 4-(6-(4-methoxy-3-propoxyphenyl)pyridin-2-yl)-3-methyl-1,2-oxaborol-2(5H)-ol]	5.98	6.70	5.10	7.96	–	–	–
CCCOc1cc(-c2cccc(C3(C)COB(O)C3)n2)ccc1OC (stereo not drawn) [Example 29, 4-(6-(4-methoxy-3-propoxyphenyl)pyridin-2-yl)-4-methyl-1,2-oxaborolan-2-ol]	8.02	8.32	5.46	7.98	–	–	–
CCCOc1cc(-c2cc(C3CB(O)OC3C)cnn2)ccc1OC (stereo not drawn) [Example 30, 4-(6-(4-methoxy-3-propoxyphenyl)pyridazin-4-yl)-5-methyl-1,2-oxaborolan-2-ol]	7.15	7.94	5.00	7.81	–	–	–
